Test results: patent US4839386A, “Ionic bis (Dicarboxylato) palladate (II)” (Engelhard Corporation, priority 1987, dated 1989)
Where “and” joins values, the source holds several entries; their conditions need not be identical. Equal values may be shown once. Read-outs that look alike come from different tables or passages of the source.

Tests used:
[1] = test system: S 180 Ascites; test: effective dose (ED90) and therapeutic index, S 180 ascites, method of Miller and Taiter; type: in vivo, mice; parameters: ED90: unit not given here; conditions: for Therapeutic Index: LD50/ED90; for ED90: dose which causes a 50% increase in life span in 90% of the test animals, determined graphically
Protocol: The effective dose (ED90), lethal dose (LD50) and therapeutic index (TI) were determined via the method of Miller and Taiter (Reported by R. A. Turner, "Screening Methods in Pharmacology", Academic Press, New York, pages 61-62 (1965)).
In this study Ed90 represents the dose which causes a 50% increase in life span (ILS) in 90% of the test animals (mice) determined graphically. The LD50 value represents the lethal dose to 50% of said animals (Therapeutic Index=LD50 /Ed90).

[2] = solubility in water at room temperature
[3] = test system: S180 ascites; test: Anti-Tumor Screening; S180 ascites in mice (% increase in life span, survivors); type: in vivo, female CFW Swiss mice; conditions: for Best % ILS (Dosage): Table 4
Protocol: The compounds used in this invention were evaluated against S180 ascites in female CFW Swiss mice. The mice were weighed (average weight: 20 g), placed into cages (six mice to a cage) and on day zero the mice were inoculated with 0.2 ml of a freshly prepared saline suspension (0.15M NaC1) containing 1×10^7 tumor cells/ml or a total of 2×10^6 cells. This inoculum was freshly prepared using "transfer" mice which had been injected with tumor cells the previous week; it was obtained via the following steps (1) the removal of cells from the peritoneal cavity of the sacrificed transfer mouse, (2) alternate centrifugation and washing operations (2-3 times with cold saline) to remove blood and other components, and (3) dilution of the volume of the packed cell with saline (1:3). A final centrifugation was carried out at 1000 RPM over a two minute period. A cell count was made on a 2000-fold dilution of this 1:3 suspension by means of a Coulter Counter. A final dilution to 1×10^7 cells/ml was made based on the average count.
On day 1, solutions of the test compounds were prepared and each mouse in a set of six was injected with the same test compound at the same dosage. The doses were based on the average weight of the animals (cage weight). Also, beginning on day 1 two controls were employed containing six mice per control:
(1) Normal Control: This consisted solely of the carrier or diluent used in combination with the test compound; and
(2) Positive Control: This consisted solely of the known anti-tumor agent cis-[Pt(NH3)2 C12 ] in saline (8 mg/kg) to test the response of the biological system.
The effectiveness of a test compound was measured in terms of the % increase in life span (% ILS) of the test mice relative to the Normal Control (Calculated from the day of tumor inoculation, i.e., day zero). To standardize the test data and permit intercomparisons, the day of evaluation was arbitrarily taken as that day corresponding to twice the mean life span (or average day of death) of the control. This established a practical upper limit of 100% on the % ILS attainable. For calculation purposes the survivors on the day of evaluation were considered to have died on that day. The % ILS was calculated as follows:
% ILS=mean-life span of test mice/mean-life span of control
ILS values in excess of 50% were interpreted as being indicative of anti-tumor cell activity in animals whereas, values in excess of 75% indicated excellent activity.
The test compounds were evaluated in water.

[4] = test system: testicular and ovarian tumors; conditions: background; cited from earlier work

Compound | Therapeutic Index [1] | ED90 [1] | % ILS ([3]; 10 mg/kg) | Survivors ([3]; 10 mg/kg) | Survivors ([3]; 20 mg/kg) | Survivors ([3]; 40 mg/kg) | Survivors ([3]; 80 mg/kg) | Best % ILS (Dosage) ([3]; 160 mg/kg) | % ILS ([3]; 20 mg/kg) | % ILS ([3]; 40 mg/kg) [%] | % ILS ([3]; 80 mg/kg) | % ILS ([3]; 160 mg/kg) | Survivors ([3]; 160 mg/kg) | % ILS ([3]; 320 mg/kg) [%] | Survivors ([3]; 320 mg/kg) | % ILS ([3]; 50 mg/kg) [%] | Survivors ([3]; 50 mg/kg) | % ILS ([3]; 100 mg/kg) [%] | Survivors ([3]; 100 mg/kg) | % ILS ([3]; 200 mg/kg) [%] | also measured
CCC(C(=O)[O-])C(=O)[O-].CCC(C(=O)[O-])C(=O)[O-].[K+].[K+].[Pd+2] [Example 1, Potassium Bis(Ethylmalonato)palladate(II)] | 2.1 | 150 | -3% | 0 of 6 | 0 of 6 | 0 of 6 | 0 of 6 | 94% |  |  |  |  |  |  |  |  |  |  |  |  | solubility in water [2]: 70 mg/mL; % ILS ([3]; 5 mg/kg): 6%; Survivors ([3]; 5 mg/kg): 0 of 6; % ILS ([3]; 160 mg/kg, listed as Ex. 1): 94% and 55%; Survivors ([3]; 160 mg/kg, listed as Ex. 1): 5 of 6 and 1 of 6; Survivors ([3]; 320 mg/kg, listed as Ex. 1): 0 of 6 and 1 of 6
O=C([O-])C(=O)C(=O)[O-].O=C([O-])C(=O)C(=O)[O-].[K+].[K+].[Pd+2] [Example 2, Potassium Bis(Ketomalonato)palladate(II)] | 2.0 | 200 | 4% | 0 of 6 | 0 of 6 | 0 of 6 | 1 of 6 | 81% | 4% | 4 | 13% | 81% | 5 of 6 | 17 | 0 of 6 |  |  |  |  |  | solubility in water: 6.7 mg/mL
CC(C(=O)[O-])C(=O)[O-].CC(C(=O)[O-])C(=O)[O-].[K+].[K+].[Pd+2] [Example 3, Potassium Bis(Methylmalonato)palladate(II)] | 1.1 | 160 |  |  |  |  |  |  |  |  |  |  |  |  |  | 2 | 0 of 6 | 54 | 2 of 6 | 54 | solubility in water [2]: 21 mg/mL; % ILS ([3]; 6.25 mg/kg): 11%; Survivors ([3]; 6.25 mg/kg): 0 of 6; % ILS ([3]; 12.5 mg/kg): 2%; Survivors ([3]; 12.5 mg/kg): 0 of 6; % ILS ([3]; 25 mg/kg): -6%; Survivors ([3]; 25 mg/kg): 0 of 6; Best % ILS (Dosage) ([3]; 100 mg/kg): 54%; Survivors ([3]; 200 mg/kg): 0 of 6; % ILS ([3]; 400 mg/kg): -83%; Survivors ([3]; 400 mg/kg): 0 of 6
O=C([O-])C(O)C(=O)[O-].O=C([O-])C(O)C(=O)[O-].[K+].[K+].[Pd+2] [Example 4, Potassium Bis(Tartronato)palladate(II)] | 2.1 | 190 |  |  |  |  |  |  |  |  |  |  |  |  |  | 11 | 0 of 6 | 68 | 3 of 6 | 76 | solubility in water: 2 mg/mL; % ILS ([3]; 12.5 mg/kg): 1%; Survivors ([3]; 12.5 mg/kg): 0 of 6; % ILS ([3]; 25 mg/kg): 12%; Survivors ([3]; 25 mg/kg): 0 of 6; Survivors ([3]; 200 mg/kg): 0 of 6; Best % ILS (Dosage) ([3]; 200 mg/kg): 76%; % ILS ([3]; 400 mg/kg): 14%; Survivors ([3]; 400 mg/kg): 3 of 6
O=C([O-])c1ccccc1C(=O)[O-].O=C([O-])c1ccccc1C(=O)[O-].[K+].[K+].[Pd+2] [Example 5, Potassium Bis(phthalato)palladate(II)] | 2.3 | 220 |  |  |  |  |  |  |  |  |  |  |  |  |  | 18 | 0 of 6 | 38 | 1 of 6 | 79 | solubility in water [2]: 80 mg/mL; Survivors ([3]; 200 mg/kg): 2 of 6; Best % ILS (Dosage) ([3]; 200 mg/kg): 79%; % ILS ([3]; 400 mg/kg): 25%; Survivors ([3]; 400 mg/kg): 0 of 6
O=C([O-])C1(C(=O)[O-])CCC1.O=C([O-])C1(C(=O)[O-])CCC1.[K+].[K+].[Pd+2] [Example 6, Potassium Bis(Cyclobutanedicarboxylato)palladate(II)] | 1.1 | 210 | -4% | 0 of 6 | 0 of 6 | 0 of 6 | 0 of 6 | 50% | 9% | 7 | -7% | 50% | 0 of 6 | -75 | 0 of 6 |  |  |  |  |  | solubility in water: 200 mg/mL
CC(C)(C(=O)[O-])C(=O)[O-].CC(C)(C(=O)[O-])C(=O)[O-].[K+].[K+].[Pd+2] [Example 7, Potasium Bis(Dimethylmalonato)palladate(II)] |  | 210 | -15% | 0 of 6 | 0 of 6 | 0 of 6 | 0 of 6 | 61% | 0% | -8 | -11% | 61% | 1 of 6 | 26 | 0 of 6 |  |  |  |  |  | 
O=C([O-])CC(=O)[O-].O=C([O-])CC(=O)[O-].[K+].[K+].[Pd+2] [K2 [Pd(Malonate)2]] |  | 120 | 6% and 8% | 0 of 6 | 0 of 6 | 0 of 6 | 3 of 6 and 2 of 6 | 82% and 86% | -1% and 8% | -12 | 69% and 66% | 82% and 86% | 2 of 6 and 3 of 6 | -74 | 0 of 6 |  |  |  |  |  | 
O=C([O-])C(=O)[O-].O=C([O-])C(=O)[O-].[K+].[K+].[Pd+2] [K2 [Pd(Oxalate)2], reference compound] |  |  |  |  |  |  |  |  |  |  |  |  |  |  |  | -7 | 0 of 6 | -9 | 1 of 6 | -71 | % ILS ([3]; 12.5 mg/kg): 2%; Survivors ([3]; 12.5 mg/kg): 0 of 6; % ILS ([3]; 25 mg/kg): 33%; Survivors ([3]; 25 mg/kg): 0 of 6; Survivors ([3]; 200 mg/kg): 0 of 6
cis-[Pt(NH3)2 -Cl2 ] [Positive Control, reference compound] |  |  |  |  |  |  |  |  |  |  |  |  |  |  |  |  |  |  |  |  | regression of testicular and ovarian tumors (in words) [4]: singularly successful in bringing about a regression of testicular and ovarian tumors; Positive Control Survivors ([3]; 8 mg/kg in saline): 0 of 6 and 1 of 6 and 2 of 6 and 4 of 6
